Earlier results on one molecule are cited in US20040220135A1 (priority 2003, published 2004).

The subject of this data set is liver metastases. The settings on record: Gray et al (2001) Annals of Oncology 12: 1711-1720.

As to `O=c1[nH]c(=O)n([C@H]2C[C@H](O)[C@@H](CO)O2)cc1F` [floxuridine], the Response rate is reported as 17.6% and the “Time to disease progression” value is 9.7 months.
